Results: patent publication US20080194482A1, “Selective Apac2 Receptor Peptide Agonists” (priority 2005, published 2008)
Square brackets hold non-standard residues; d marks the D form. Peptide text beside a SMILES is read from it. * marks the point of attachment. Orn = NCCC[C@H](N)C(=O)O; Hexanoyl = CCCCCC(=O)*; Aib = CC(C)(N)C(=O)O

How the values were obtained:
[1] = Rat serum stability (activity remaining, CHO-VPAC2 DiscoveRx read-out); assay type: in vitro ADME
Description: The rat serum is stored at 4° C. until use and is used within two weeks. […] The aliquot is stored with aprotinin at 4° C. The aliquot is stored without aprotinin at 37° C. The aliquots are incubated overnight. […] The plate(s) are washed with cells twice in incubation buffer. The plates are allowed to hold 50 μL incubation media per well for 15 minutes. 50 μL solution per well is transferred to the cells from the plate prepared with 11 serial 5× dilutions of peptide for the 4° C. and 37° C. aliquot for each peptide studied, using the maximal concentrations that are indicated by the primary screen, in duplicate. This step dilutes the peptide concentration by a factor of two. The cells are incubated at room temperature for 30 minutes. […] The cells are incubated on the shaker (300 rpm) for 1 hour. Normal procedure with the DiscoveRx kit is followed. cAMP standards are included in column 12. EC50 values are determined from the cAMP assay data.

[2] = biological target: T1, human VPAC2 (Homo sapiens, UniProt P41587); experiment: Alpha screen cAMP assay, in vitro potency at human VPAC2 receptor; assay type: cell-based; settings: cAMP generation; single result from two analyses in a single run, some values average of more than one experiment
T1 construct: expressed in transfected cells
T1 sequence (P41587 24-438): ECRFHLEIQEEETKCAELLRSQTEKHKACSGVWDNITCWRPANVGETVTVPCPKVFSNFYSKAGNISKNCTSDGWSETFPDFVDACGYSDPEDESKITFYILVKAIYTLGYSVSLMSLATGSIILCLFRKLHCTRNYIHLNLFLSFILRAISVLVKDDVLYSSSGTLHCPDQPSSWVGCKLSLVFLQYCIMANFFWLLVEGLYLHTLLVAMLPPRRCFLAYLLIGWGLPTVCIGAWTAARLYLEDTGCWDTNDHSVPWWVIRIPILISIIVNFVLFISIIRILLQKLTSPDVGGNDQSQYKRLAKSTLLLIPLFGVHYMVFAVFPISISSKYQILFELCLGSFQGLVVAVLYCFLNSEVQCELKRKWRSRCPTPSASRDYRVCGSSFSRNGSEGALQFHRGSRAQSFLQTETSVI

[3] = biological target: T2, human PAC1 (Homo sapiens, UniProt P41586); experiment: Filter binding assay, 125I-labeled PACAP-27 tracer, PAC1 membranes; settings: read-out: Human PAC1 Receptor Binding (IC50; nM)
T2 construct: expressed in transfected cells
T2 sequence (P41586 21-468): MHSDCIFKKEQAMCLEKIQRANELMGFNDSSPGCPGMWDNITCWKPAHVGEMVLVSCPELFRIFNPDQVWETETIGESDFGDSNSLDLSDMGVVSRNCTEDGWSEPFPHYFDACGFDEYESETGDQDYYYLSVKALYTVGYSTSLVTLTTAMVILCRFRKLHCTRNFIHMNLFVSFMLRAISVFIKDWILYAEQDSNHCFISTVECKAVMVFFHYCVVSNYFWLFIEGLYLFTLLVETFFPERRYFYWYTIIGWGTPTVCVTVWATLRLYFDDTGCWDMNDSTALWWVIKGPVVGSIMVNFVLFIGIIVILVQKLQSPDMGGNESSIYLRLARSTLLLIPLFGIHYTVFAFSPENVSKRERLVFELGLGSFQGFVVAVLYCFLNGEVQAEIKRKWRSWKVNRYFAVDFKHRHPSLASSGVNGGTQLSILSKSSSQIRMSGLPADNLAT
Description: (§1) For this assay, the solutions and equipment include:
(§2) Presoak solution: 0.5% Polyethyleneamine in Aqua dest
(§3) Buffer for flushing filter plates: 25 mM HEPES pH 7.4
(§4) Blocking buffer: 25 mM HEPES pH 7.4; 0.2% protease free BSA
(§5) Assay buffer: 25 mM HEPES pH 7.4; 0.5% protease free BSA
(§6) Dilution and assay plate: PS-Microplate, U form
(§7) Filtration Plate: Multiscreen FB Opaque Plate; 1.0 μM Type B Glasfiber filter
(§8) In order to prepare the filter plates, the presoak solution is aspirated by vacuum filtration. The plates are flushed twice with 200 μL flush buffer. 200 μL blocking buffer is added to the filter plate. The filter plate is then incubated with 200 μL presoak solution for 1 hour at room temperature.
(§9) The assay plate is filled with 25 μL assay buffer, 25 μL membranes (2.5 μg) suspended in assay buffer, 25 μL compound (agonist) in assay buffer, and 25 μL tracer (about 40000 cpm) in assay buffer. The filled plate is incubated for 1 hour with shaking.
(§10) The transfer from assay plate to filter plate is conducted. The blocking buffer is aspirated by vacuum filtration and washed two times with flush buffer. 90 μL is transferred from the assay plate to the filter plate. The 90 μL transferred from assay plate is aspirated and washed three times with 200 μL flush buffer. The plastic support is removed. It is dried for 1 hour at 60° C. 30 μL Microscint is added. The count is performed.

[4] = biological target: T3, human VPAC1 (Homo sapiens, UniProt P32241); experiment: Filter binding assay, 125I-labeled VIP tracer, VPAC1 membranes; settings: read-out: Human VPAC1 Receptor Binding (IC50; nM)
T3 construct: expressed in transfected cells
T3 sequence (P32241 31-457): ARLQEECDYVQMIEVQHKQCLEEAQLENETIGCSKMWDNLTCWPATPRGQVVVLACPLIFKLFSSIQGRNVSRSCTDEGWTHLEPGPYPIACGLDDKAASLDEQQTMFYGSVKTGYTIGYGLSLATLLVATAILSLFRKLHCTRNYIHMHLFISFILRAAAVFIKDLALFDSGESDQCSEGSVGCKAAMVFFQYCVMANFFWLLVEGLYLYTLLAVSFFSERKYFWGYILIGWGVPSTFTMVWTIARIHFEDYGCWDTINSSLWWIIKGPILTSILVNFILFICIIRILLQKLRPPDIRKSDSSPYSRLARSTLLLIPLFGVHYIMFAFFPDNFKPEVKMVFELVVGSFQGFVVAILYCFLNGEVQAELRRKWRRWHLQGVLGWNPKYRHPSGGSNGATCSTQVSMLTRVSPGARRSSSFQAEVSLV
Description: as §1, §2, §3, §4, §5, §6, §7, §8, §9, §10

[5] = biological target: T4, rat VPAC2 receptor (Rattus norvegicus, UniProt P35000); experiment: DiscoveRx cAMP assay, in vitro potency at rat VPAC2 receptor; assay type: cell-based; settings: CHO-PO cells transiently transfected with rat VPAC2; cAMP generation; mean of two independent runs
T4 construct: expressed in transfected cells; host or cells: CHO-PO (transient, Lipofectamine)
T4 sequence (P35000 23-437): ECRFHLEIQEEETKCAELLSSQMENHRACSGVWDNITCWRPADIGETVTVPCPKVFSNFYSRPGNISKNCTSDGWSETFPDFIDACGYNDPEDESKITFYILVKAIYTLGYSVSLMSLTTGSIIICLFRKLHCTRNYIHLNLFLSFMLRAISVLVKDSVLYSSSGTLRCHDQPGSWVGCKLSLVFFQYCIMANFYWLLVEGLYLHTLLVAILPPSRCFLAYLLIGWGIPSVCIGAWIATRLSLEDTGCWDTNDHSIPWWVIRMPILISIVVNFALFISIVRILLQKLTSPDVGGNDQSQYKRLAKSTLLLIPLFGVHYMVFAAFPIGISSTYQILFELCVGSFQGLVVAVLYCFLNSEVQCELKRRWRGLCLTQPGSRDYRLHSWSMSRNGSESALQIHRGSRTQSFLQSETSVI
Description: DiscoveRx: CHO-PO cells are transiently transfected with rat VPAC1 or VPAC2 receptor DNA using commercially available transfection reagents (Lipofectamine from Invitrogen). The cells are seeded at a density of 10,000/well in a 96-well plate and are allowed to grow for 3 days in […] culture medium. At day 3, the assay is performed.
On the day of the experiment, the medium is removed. Also, the cells are washed twice. The cells are incubated in assay buffer plus IBMX for 15 minutes at room temperature. Afterwards, the stimuli are added and are dissolved in assay buffer. The stimuli are present for 30 minutes. Then, the assay buffer is gently removed. The cell lysis reagent of the DiscoveRx cAMP kit is added. Thereafter, the standard protocol for developing the cAMP signal as described by the manufacturer is used (DiscoveRx Inc., USA). EC50 values for cAMP generation are calculated from the raw signal or are based on absolute cAMP levels as determined by a standard curve performed on each plate.
Results for each agonist are the mean of two independent runs. Rat VPAC1 and VPAC2 results are only generated using the DiscoveRx assay.

Structure (SMILES) | Rat Serum Stability (estimated purity in % after overnight incub.) [1] [%] | EC50 [2] [nM] | IC50 [3] [nM] | IC50 [4] [nM] | EC50 [5] [nM]
CCCCCC(=O)N[C@@H](Cc1c[nH]cn1)C(=O)N[C@@H](CO)C(=O)N[C@@H](CC(=O)O)C(=O)N[C@@H](C)C(=O)N[C@H](C(=O)N[C@@H](Cc1ccccc1)C(=O)N[C@H](C(=O)N[C@@H](CC(=O)O)C(=O)N[C@@H](CC(N)=O)C(=O)N[C@@H](Cc1ccc(O)cc1)C(=O)N[C@H](C(=O)N[C@@H](CCCNC(=N)N)C(=O)N[C@@H](CC(C)C)C(=O)N[C@@H](CCCNC(=N)N)C(=O)NC(C)(C)C(=O)N[C@@H](CCC(N)=O)C(=O)N[C@H](C(=O)N[C@@H](C)C(=O)N[C@@H](C)C(=O)NC(C)(C)C(=O)N[C@@H](CCCCN)C(=O)N[C@@H](Cc1ccc(O)cc1)C(=O)N[C@@H](CC(C)C)C(=O)N[C@@H](CCC(N)=O)C(=O)N[C@@H](CO)C(=O)N[C@H](C(=O)N[C@@H](CCCCN)C(=O)NC(C)(C)C(=O)N[C@@H](CCCN)C(=O)NCC(=O)NCC(=O)N1CCC[C@H]1C(=O)N[C@@H](CO)C(=O)N[C@@H](CO)C(=O)NCC(=O)N[C@@H](C)C(=O)N1CCC[C@H]1C(=O)N1CCC[C@H]1C(=O)N1CCC[C@H]1C(=O)N[C@@H](CO)C(=O)O)[C@@H](C)CC)C(C)C)[C@@H](C)O)[C@@H](C)O)C(C)C [Agonist P357] | 38.83 | 0.23 | > 25000 | > 3000 | 
CCCCCC(=O)N[C@@H](Cc1c[nH]cn1)C(=O)N[C@@H](CO)C(=O)N[C@@H](CC(=O)O)C(=O)N[C@@H](C)C(=O)N[C@H](C(=O)N[C@@H](Cc1ccccc1)C(=O)N[C@H](C(=O)N[C@@H](CC(=O)O)C(=O)N[C@@H](CC(N)=O)C(=O)N[C@@H](Cc1ccc(O)cc1)C(=O)N[C@H](C(=O)N[C@@H](CCCN)C(=O)N[C@@H](CC(C)C)C(=O)N[C@@H](CCCNC(=N)N)C(=O)NC(C)(C)C(=O)N[C@@H](CCC(N)=O)C(=O)N[C@H](C(=O)N[C@@H](C)C(=O)N[C@@H](C)C(=O)NC(C)(C)C(=O)N[C@@H](CCCN)C(=O)N[C@@H](Cc1ccc(O)cc1)C(=O)N[C@@H](CC(C)C)C(=O)N[C@@H](CCC(N)=O)C(=O)N[C@@H](CO)C(=O)N[C@H](C(=O)N[C@@H](CCCN)C(=O)N[C@@H](CCCN)C(=O)NCC(=O)NCC(=O)N1CCC[C@H]1C(=O)N[C@@H](CO)C(=O)N[C@@H](CO)C(=O)NCC(=O)N[C@@H](C)C(=O)N1CCC[C@H]1C(=O)N1CCC[C@H]1C(=O)N1CCC[C@H]1C(=O)N[C@@H](CO)C(=O)O)[C@@H](C)CC)C(C)C)[C@@H](C)O)[C@@H](C)O)C(C)C [Agonist P397] (Hexanoyl-HSDAVFTDNYT[Orn]LR[Aib]QVAA[Aib][Orn]YLQSI[Orn][Orn]GGPSSGAPPPS-OH; C-terminus assumed) | 71.07 | 0.15 | > 25000 | > 3000 | 
CCCCCC(=O)N[C@@H](Cc1c[nH]cn1)C(=O)N[C@@H](CO)C(=O)N[C@@H](CC(=O)O)C(=O)N[C@@H](C)C(=O)N[C@H](C(=O)N[C@@H](Cc1ccccc1)C(=O)N[C@H](C(=O)N[C@@H](CC(=O)O)C(=O)N[C@@H](CCC(N)=O)C(=O)N[C@@H](Cc1ccc(O)cc1)C(=O)N[C@H](C(=O)N[C@@H](CCCN)C(=O)N[C@@H](CC(C)C)C(=O)N[C@@H](CCCNC(=N)N)C(=O)NC(C)(C)C(=O)N[C@@H](CCC(N)=O)C(=O)N[C@H](C(=O)N[C@@H](C)C(=O)N[C@@H](C)C(=O)NC(C)(C)C(=O)N[C@@H](CCCCN)C(=O)N[C@@H](Cc1ccc(O)cc1)C(=O)N[C@@H](CC(C)C)C(=O)N[C@@H](CCC(N)=O)C(=O)N[C@@H](CO)C(=O)N[C@H](C(=O)N[C@@H](CCCN)C(=O)N[C@@H](CCC(N)=O)C(=O)N[C@@H](CCCN)C(=O)NCC(=O)NCC(=O)N1CCC[C@H]1C(=O)N[C@@H](CO)C(=O)N[C@@H](CO)C(=O)NCC(=O)N[C@@H](C)C(=O)N1CCC[C@H]1C(=O)N1CCC[C@H]1C(=O)N1CCC[C@H]1C(=O)N[C@@H](CO)C(=O)O)[C@@H](C)CC)C(C)C)[C@@H](C)O)[C@@H](C)O)C(C)C [Agonist P363] (Hexanoyl-HSDAVFTDQYT[Orn]LR[Aib]QVAA[Aib]KYLQSI[Orn]Q[Orn]GGPSSGAPPPS-OH; C-terminus assumed) | 81.66 | 0.27 | > 25000 | > 3000 | 0.09
CCCCCC(=O)N[C@@H](Cc1c[nH]cn1)C(=O)N[C@@H](CO)C(=O)N[C@@H](CC(=O)O)C(=O)N[C@@H](C)C(=O)N[C@H](C(=O)N[C@@H](Cc1ccccc1)C(=O)N[C@H](C(=O)N[C@@H](CC(=O)O)C(=O)N[C@@H](CC(N)=O)C(=O)N[C@@H](Cc1ccc(O)cc1)C(=O)N[C@H](C(=O)N[C@@H](CCCNC(=N)N)C(=O)N[C@@H](CC(C)C)C(=O)N[C@@H](CC(C)C)C(=O)N[C@@H](C)C(=O)N[C@@H](CCCCN)C(=O)N[C@@H](CC(C)C)C(=O)N[C@@H](C)C(=O)N[C@@H](CC(C)C)C(=O)N[C@@H](CCC(N)=O)C(=O)N[C@@H](CCCCN)C(=O)N[C@@H](Cc1ccc(O)cc1)C(=O)N[C@@H](CC(C)C)C(=O)N[C@@H](CCC(N)=O)C(=O)N[C@@H](CO)C(=O)N[C@H](C(=O)N[C@@H](CCCN)C(=O)N[C@@H](CC(N)=O)C(=O)N[C@@H](CCCN)C(=O)NCC(=O)NCC(=O)N1CCC[C@H]1C(=O)N[C@@H](CO)C(=O)N[C@@H](CO)C(=O)NCC(=O)N[C@@H](C)C(=O)N1CCC[C@H]1C(=O)N1CCC[C@H]1C(=O)N1CCC[C@H]1C(=O)N[C@@H](CO)C(=O)O)[C@@H](C)CC)[C@@H](C)O)[C@@H](C)O)C(C)C [Agonist P370] (Hexanoyl-HSDAVFTDNYTRLLAKLALQKYLQSI[Orn]N[Orn]GGPSSGAPPPS-OH; C-terminus assumed) | 41.82 | 0.23 | > 25000 | > 3000 | 0.05
